The values below come from patent US4906661A, “Esters of aryloxypropanolamine derivatives” (E. I. Du Pont de Nemours and Company, priority 1989, dated 1990).

Series [1] in a line: Half-life in dog whole blood (procedure D). The conditions noted are these: 37° C., read-out: T1/2 dog blood. The class given is in vitro ADME. The procedure: (§1) In each experiment, 1 ml of a solution containing 50 μg of the test compound was added to 1 ml of whole blood or 1 ml of a 33% (w/v) liver homogenate. The samples were incubated in a Dubnoff shaking metabolic incubator for 2.5, 5.0, 10.0, 20.0, 30.0 and 60.0 minutes at 37° C. At the designated time periods, the test mixtures were removed from the incubator and transferred to a 0° C. ice bath. Acetonitrile (2 ml) was immediately added and the mixtures were mixed to stop enzymatic hydrolysis. Zero time samples were prepared by adding 2 ml of acetonitrile to denature the proteins prior to addition of the test compounds. After centrifugation to sediment denatured proteins, 2 ml of the supernatant was removed and analyzed by high pressure liquid chromatography, using a mobile phase of 60% acetonitrile/40% 0.05 M sodium phosphate buffer (pH 6.6), a U.V. detector and Waters μ Bondapak Phenyl column.
(§2) The half life of each test compound was determined graphically by plotting the decrease in concentrations as a function of time.

Series [2] concerns heart rate response to isoproterenol. Nature of the series: Duration and potency of beta-blocking action in vivo, 3-hour infusion in anesthetized dogs, isoproterenol challenge. Also noted: species or system dog. The note with it: Table II. On the procedure:
The duration of β-blockade was determined In vivo using pentobarbital-anesthetized dogs instrumented for measurement of heart rate using a Beckman cardiotachometer triggered electronically by a phasic aortic blood pressure signal. Both vagus nerves were served in the cervical region and the animals were mechanically ventilated. The experimental design used employed a 3-hour infusion of test compound. Bolus doses of isoproterenol (0.5 μg/kg) were used to assess the degree of β-blockade and recovery from β-blockade after […] of the infusion. The doses were spaced at 10-minute intervals and were given before, during and following the infusion of test compounds. The infusion rate was adjusted so that at the end of the 3-hour infusion period the degree of isoproterenol inhibition averaged about 50% of control. Following termination of blocker infusion, percent recovery from β-blockade was computed and the time associated with 80% recovery estimated.
^c Time in minutes for 50% recovery from 50% blockade levels after 3
Infusions of drug. Number of experiments is equal to or greater than thre
for each compound unless noted otherwise. Tabulated data are mean values
^c The betablocking activities were evaluated Invivo in a canine
model. The betablocker was infused in the animal for 3 hours with the dos
adjusted to give approximately 50%. blockage of the Isoproternolinduced
tachycardia. The infusion was then terminated and the time required for
80% recovery of blockade was recorded as duration of action of the
compound. The amount of drug infused during the 3 hours was averaged and
expressed as potency in ug/kg/min.

Series [3] deals with β2 receptors, guinea pig trachea (Cavia porcellus, UniProt Q8K4Z4). Description: cell-based. The procedure: Each tissue was suspended between a fixed glass rod and a Statham Universal Transducer connected to a Beckman recorder. Atria were allowed to beat spontaneously under a loading tension of approximately 0.5 gm. Intrinsic depressant or stimulant activity was determined for each compound by progressively increasing concentrations in the tissue baths at 60-minute intervals. Tissues were not washed between increments. […] Changes in rate in response to isoproterenol, a standard β-receptor agonist, were measured in the absence and presence of test compounds. Spiral strips of guinea pig trachea were suspended under 5 gm resting tension and incubated with phentolamine, tropolone and cocaine. Active tension was generated by addition of carbachol (3.0×10^-7 M) and decreases in tension in response to isoproterenol were quantitated. Cumulative concentration-response curves were produced with isoproterenol both before and after 60-minute incubation of test compounds with atria and trachea. […] The blocking potency of test compounds was estimated by computing pA2 values (-log KB) by the method of Furchgott, the Pharmacological Differentiation of Adrenergic Receptors, Ann. […] A ratio greater than one indicates cardioselectivity. Test drugs were dissolved in distilled water and added to the bath (30 ml) in a volume of 10 or 100 μl.

For series [4], the system named is β-adrenergic receptors, guinea pig trachea vs right atria. Description: Cardioselectivity, KB trachea/KB atria. The class given is cell-based. The conditions noted are these: 10^(pA2 atria-pA2 trachea); ratio greater than one indicates cardioselectivity.
Procedure: Each tissue was suspended between a fixed glass rod and a Statham Universal Transducer connected to a Beckman recorder. Atria were allowed to beat spontaneously under a loading tension of approximately 0.5 gm. Intrinsic depressant or stimulant activity was determined for each compound by progressively increasing concentrations in the tissue baths at 60-minute intervals. Tissues were not washed between increments. The maximum concentration showing little or no cardiodepressant activity was chosen for blockade experiments. Changes in rate in response to isoproterenol, a standard β-receptor agonist, were measured in the absence and presence of test compounds. Spiral strips of guinea pig trachea were suspended under 5 gm resting tension and incubated with phentolamine, tropolone and cocaine. Active tension was generated by addition of carbachol (3.0×10^-7 M) and decreases in tension in response to isoproterenol were quantitated. Cumulative concentration-response curves were produced with isoproterenol both before and after 60-minute incubation of test compounds with atria and trachea. […] The degree of cardioselectivity was estimated from the ratio, KB trachea/KB atria (10^(pA2 atria-pA2 trachea)). A ratio greater than one indicates cardioselectivity. Test drugs were dissolved in distilled water and added to the bath (30 ml) in a volume of 10 or 100 μl.
The nature of series [5]: Half-life in dog liver homogenate (procedure D). The class given is in vitro ADME. The conditions noted are these: 37° C., read-out: T1/2 dog liver homogenate. On the procedure:
as §1, §2

Series [6] concerns the target β1 receptors, guinea pig right atria (Cavia porcellus, UniProt H0W3H1). Nature of the series: cell-based. The procedure:
Each tissue was suspended between a fixed glass rod and a Statham Universal Transducer connected to a Beckman recorder. Atria were allowed to beat spontaneously under a loading tension of approximately 0.5 gm. Intrinsic depressant or stimulant activity was determined for each compound by progressively increasing concentrations in the tissue baths at 60-minute intervals. Tissues were not washed between increments. The maximum concentration showing little or no cardiodepressant activity was chosen for blockade experiments. Changes in rate in response to isoproterenol, a standard β-receptor agonist, were measured in the absence and presence of test compounds. Spiral strips of guinea pig trachea were suspended under 5 gm resting tension and incubated with phentolamine, tropolone and cocaine. Active tension was generated by addition of carbachol (3.0×10^-7 M) and decreases in tension in response to isoproterenol were quantitated. Cumulative concentration-response curves were produced with isoproterenol both before and after 60-minute incubation of test compounds with atria and trachea. […] The blocking potency of test compounds was estimated by computing pA2 values (-log KB) by the method of Furchgott, the Pharmacological Differentiation of Adrenergic Receptors, Ann. […] The degree of cardioselectivity was estimated from the ratio, KB trachea/KB atria (10^(pA2 atria-pA2 trachea)). A ratio greater than one indicates cardioselectivity. Test drugs were dissolved in distilled water and added to the bath (30 ml) in a volume of 10 or 100 μl.

The conditions of series [7]: topical (eye), Physicians' Desk Reference 1981; cited from earlier work.
Series [8] in a line: Ocular toxicity noted in corneal anesthesia test. Type of series: in vivo. The conditions noted are these: Table IV footnote e.

The structures appear in SMILES notation. Structures can show the parent of a compound that is named as a salt. Where two headings read alike, the source gives them in different places. Some results are limits rather than exact numbers.

Chain of β1 receptors, guinea pig right atria (H0W3H1 1-470): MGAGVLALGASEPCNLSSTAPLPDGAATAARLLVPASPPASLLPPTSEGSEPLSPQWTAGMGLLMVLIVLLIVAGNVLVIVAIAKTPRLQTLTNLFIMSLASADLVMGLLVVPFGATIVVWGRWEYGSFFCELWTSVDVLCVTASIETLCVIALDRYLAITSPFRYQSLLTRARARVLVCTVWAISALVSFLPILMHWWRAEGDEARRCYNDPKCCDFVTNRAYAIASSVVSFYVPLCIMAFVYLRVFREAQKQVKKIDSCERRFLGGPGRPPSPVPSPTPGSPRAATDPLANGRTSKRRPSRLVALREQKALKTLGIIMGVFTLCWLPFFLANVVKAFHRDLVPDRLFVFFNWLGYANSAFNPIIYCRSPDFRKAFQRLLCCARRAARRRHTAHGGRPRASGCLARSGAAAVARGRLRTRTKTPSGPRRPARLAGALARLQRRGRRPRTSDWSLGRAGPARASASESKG
Chain of β2 receptors, guinea pig trachea (Q8K4Z4 whole entry): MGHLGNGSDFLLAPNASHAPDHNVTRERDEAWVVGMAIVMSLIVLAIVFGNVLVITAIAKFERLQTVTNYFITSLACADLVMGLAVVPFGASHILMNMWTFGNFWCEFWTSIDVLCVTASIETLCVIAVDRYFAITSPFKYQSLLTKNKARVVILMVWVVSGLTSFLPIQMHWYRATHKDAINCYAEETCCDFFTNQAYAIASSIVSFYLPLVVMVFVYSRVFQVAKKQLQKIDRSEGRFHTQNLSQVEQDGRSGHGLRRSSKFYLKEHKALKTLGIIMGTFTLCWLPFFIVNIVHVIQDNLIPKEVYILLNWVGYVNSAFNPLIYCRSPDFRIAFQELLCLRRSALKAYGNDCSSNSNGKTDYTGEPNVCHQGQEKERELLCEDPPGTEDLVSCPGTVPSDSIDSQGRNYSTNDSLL

For `COC(=O)c1ccccc1OCC(O)CNCCNC(=O)Nc1ccccc1` (stereo not drawn) [Example IV, Methyl 2-[2-Hydroxy-3-[N-[2-[N-(phenylaminocarbonyl)amino]ethyl]amino]propoxy]benzoate], the half-life in series [1] and in series [5] was greater than 3 h throughout. For the same compound, the “Recovery Time 50%” value in series [2] (50% recovery from β-blockade after termination of infusion) is reported as greater than 60 min. Further, the “Recovery Time 80%” value in series [2] (80% recovery from β-blockade after termination of infusion) is recorded as greater than 60 min. Also, in series [2] (end of 3-hour infusion, isoproterenol 0.5 μg/kg), the “% I, percent inhibition of heart rate response to isoproterenol” value is listed as 72 ± 3%. Also, the Kb is 200 nM in series [3] (Table I, guinea pig trachea, vs isoproterenol, -log KB, read-out: PA2 Trachea (converted)) and 7.94 nM in series [6] (Table I, guinea pig right atria, vs isoproterenol, -log KB, read-out: PA2 Rt. Atria (converted)). Further, in series [4], the “Cardioselectivity KB (Trachea)/KB (Atria)” value was determined as 25.
With `CC(C)(C)NC[C@H](O)COc1nsnc1N1CCOCC1` [timolol maleate], in series [7], the “adverse reactions to the topical use” value was “bronchospasm and heart failure, as well as cardiac conduction defects”.
Turning to `CCOC(=O)CCc1ccccc1OCC(O)CNCCNS(=O)(=O)c1ccc(C)cc1` (stereo not drawn) [No. 8 (Table IV)], the ocular toxicity entry in series [8] is “extreme ocular toxicity”. Besides, the Kb in series [3] (Table IV, mean, n ≥ 2, range ≤ ± 0.2 units, read-out: pA2 Trachea (converted)) is 126 nM; in series [6] (Table IV, mean, n ≥ 2, range ≤ ± 0.2 units, read-out: pA2 Atria (converted)) it was 794 nM.
